# Literature values as cited in patent US20230404077A1, “METHODS AND FORMULATIONS FOR CONTROLLING FLEA INFESTATIONS” (EctoGuard, LLC, priority 2022, published 2023).
# How the values were obtained:
# [1] = test system: fleas; conditions: systemic / administered orally
# [2] = test system: fleas; conditions: cats, topical
# [3] = test system: fleas; conditions: cats
Substance,activity relative to spinosad [1],"topically active dose, corresponding extrapolated value [2]",commercial oral dose for effective control (≥90% mortality) [3]
spinetoram,5.5 times,around 10 mg/kg,–
spinosad,–,–,45 to 90 mg/kg
